Biological target: T1, HCMV polymerase (Human cytomegalovirus, UniProt P08546)
T1 construct: made in house; host or cells: recombinant baculovirus-infected SF-9 cells
Experiment: HCMV polymerase scintillation proximity assay (SPA), modified version
Format: biochemical
Settings: CMV polymerase; Table 1; modified assay with 4.5 mM DTT, compounds in 100% DMSO; read-out: Antiviral Selective Polymerase IC50 Values, CMV
Experimental: The HCMV polymerase assay is performed using a scintillation proximity assay (SPA) as described in several references, such as N. D. Cook, et al., Pharmaceutical Manufacturing International, pages 49-53 (1992); K. Takeuchi, Laboratory Practice, September issue (1992); U.S. Pat. No. 4,568,649 (1986); which are incorporated by reference herein. Reactions are performed in 96-well plates. The assay is conducted in 100 μl volume with 5.4 mM HEPES (pH 7.5), 11.7 mM KCl, 4.5 mM MgCl2, 0.36 mg/ml BSA, and 90 nM ^3 H-dTTP. Assays are run with and without CHAPS, (3-[(3-Cholamidopropyl)-dimethylammonio]-1-propane-sulfonate) at a final concentration of 2 mM. HCMV polymerase is diluted in enzyme dilution buffer containing 50% glycerol, 250 mM NaCl, 10 mM HEPES (pH 7.5), 100 μg/ml BSA, and 0.01% sodium azide. The HCMV polymerase, which is expressed in recombinant baculovirus-infected SF-9 cells and purified according to literature procedures, is added at 10% (or 10 μl) of the final reaction volume, i.e., 100 μl. Compounds are diluted in 50% DMSO and 10 μl are added to each well. Control wells contain an equivalent concentration of DMSO. Unless noted otherwise, reactions are initiated via the addition of 6 nM biotinylated poly(dA)-oligo(dT) template/primer to reaction mixtures containing the enzyme, substrate, and compounds of interest. Plates are incubated in a 25° C. or 37° C. H2 O bath and terminated via the addition of 40 μl/reaction of 0.5 M EDTA (pH 8) per well. Reactions are terminated within the time-frame during which substrate incorporation is linear and varied depending upon the enzyme and conditions used, i.e., 30 min. for HCMV polymerase. Ten μl of streptavidin-SPA beads (20 mg/ml in PBS/10% glycerol) are added following termination of the reaction. Plates are incubated 10 min. at 37° C., then equilibrated to room temperature, and counted on a Packard Topcount. Linear regressions are performed and IC50 's are calculated using computer software.
A modified version of the above HCMV polymerase assay is performed as described above, but with the following changes: Compounds are diluted in 100% DMSO until final dilution into assay buffer. In the previous assay, compounds are diluted in 50% DMSO. 4.5 mM dithiotherotol (DTT) is added to the polymerase buffer. […] Other viral polymerase assays are performed using procedures similar to those described above.

T1 sequence (P08546 whole entry): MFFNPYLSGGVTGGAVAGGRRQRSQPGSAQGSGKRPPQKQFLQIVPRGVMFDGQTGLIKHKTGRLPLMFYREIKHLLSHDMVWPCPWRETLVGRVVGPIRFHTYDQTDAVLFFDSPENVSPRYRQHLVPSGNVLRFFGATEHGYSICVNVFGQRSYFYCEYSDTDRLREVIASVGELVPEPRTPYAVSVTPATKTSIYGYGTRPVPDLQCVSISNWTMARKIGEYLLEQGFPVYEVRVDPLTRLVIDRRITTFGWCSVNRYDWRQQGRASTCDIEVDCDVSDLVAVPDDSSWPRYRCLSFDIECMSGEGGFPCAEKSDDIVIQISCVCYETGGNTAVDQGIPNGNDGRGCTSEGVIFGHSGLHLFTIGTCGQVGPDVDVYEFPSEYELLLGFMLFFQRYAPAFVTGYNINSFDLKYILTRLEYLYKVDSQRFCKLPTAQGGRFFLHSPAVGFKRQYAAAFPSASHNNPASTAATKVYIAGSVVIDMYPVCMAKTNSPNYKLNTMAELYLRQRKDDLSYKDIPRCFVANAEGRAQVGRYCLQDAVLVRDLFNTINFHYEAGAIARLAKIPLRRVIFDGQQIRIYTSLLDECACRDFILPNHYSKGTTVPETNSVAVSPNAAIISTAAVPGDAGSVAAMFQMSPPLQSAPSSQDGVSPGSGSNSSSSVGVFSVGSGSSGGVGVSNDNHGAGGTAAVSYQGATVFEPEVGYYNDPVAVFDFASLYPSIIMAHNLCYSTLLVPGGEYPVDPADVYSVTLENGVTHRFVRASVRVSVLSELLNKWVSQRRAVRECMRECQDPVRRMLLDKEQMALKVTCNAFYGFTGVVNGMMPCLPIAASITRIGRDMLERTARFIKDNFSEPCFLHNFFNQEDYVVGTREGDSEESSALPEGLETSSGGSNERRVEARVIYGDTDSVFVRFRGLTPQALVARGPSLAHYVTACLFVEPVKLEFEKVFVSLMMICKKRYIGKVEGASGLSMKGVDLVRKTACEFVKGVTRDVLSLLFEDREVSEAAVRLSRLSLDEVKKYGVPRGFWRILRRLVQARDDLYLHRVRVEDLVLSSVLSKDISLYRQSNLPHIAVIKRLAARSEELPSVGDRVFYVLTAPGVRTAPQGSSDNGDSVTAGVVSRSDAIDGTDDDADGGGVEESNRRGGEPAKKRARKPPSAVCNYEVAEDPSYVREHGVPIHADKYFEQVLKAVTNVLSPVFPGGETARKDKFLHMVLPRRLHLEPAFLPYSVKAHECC

| Compound | IC50 [µM] |
| --- | --- |
| O=C(NNc1ccc(Cl)cc1)c1cnc2c(F)cc(I)cc2c1O [Example 54, 8-Fluoro-4-hydroxy-6-iodo-3-quinolinecarboxylic acid 2-(4-chlorophenyl)hydrazide] | 8.6 |
| Cc1cc(F)c2ncc(C(=O)NNc3ccc(Cl)cc3)c(O)c2c1 [Example 55, 8-Fluoro-4-hydroxy-6-methyl-3-quinolinecarboxylic acid 2-(4-chlorophenyl)hydrazide] | 5 |
| O=C(NCc1ccc(Cl)cc1)c1cnc2cc(Cl)ccc2c1O [Example 56, 7-Chloro-N-((4-chlorophenyl)methyl)-4-hydroxy-3-quinoline-carboxamide] | 3.1 |
| O=C(NCc1ccc(Cl)cc1)c1cnc2ccc(Br)cc2c1O [Example 57, 6-Bromo-N-((4-chlorophenyl)methyl)-4-hydroxy-3-quinoline-carboxamide] | 5.2 |
| O=C(NCc1ccc(Cl)cc1)c1cnc2ccc(-c3ccccc3)cc2c1O [Example 58, N-((4-Chlorophenyl)methyl)-4-hydroxy-6-phenyl-3-quinoline-carboxamide] | 1 |
| O=C(NCc1ccc(Cl)cc1)c1cnc2c(Cl)ccc(C(F)(F)F)c2c1O [Example 59, 8-Chloro-N-((4-chlorophenyl)methyl)-4-hydroxy-5-trifluoro-methyl-3-quinolinecarboxamide] | 33.1 |
| COc1cc(OC)c2ncc(C(=O)NCc3ccc(Cl)cc3)c(O)c2c1 [Example 60, N-((4-Chlorophenyl)methyl)-4-hydroxy-6,8-dimethoxy-3-quinolinecarboxamide] | 4 |
| COc1cc2ncc(C(=O)NCc3ccc(Cl)cc3)c(O)c2cc1OC [Example 61, N-((4-Chlorophenyl)methyl)-4-hydroxy-6,7-dimethoxy-3-quinolinecarboxamide] | 3.1 |
| Cc1cccc2ncc(C(=O)NCc3ccc(Cl)cc3)c(O)c12 [Example 62, N-((4-Chlorophenyl)methyl)-4-hydroxy-5-methyl-3-quinoline-carboxamide] | 4.6 |
| CC(C)(C)c1ccc2ncc(C(=O)NCc3ccc(Cl)cc3)c(O)c2c1 [Example 63, N-[(4-Chlorophenyl)methyl]-6-(1,1-dimethylethyl)-4-hydroxy-3-quinolinecarboxamide] | 7 |
| O=C(NCc1ccc(Cl)cc1)c1cnc2cc3c(cc2c1O)CCC3 [Example 64, N-[(4-Chlorophenyl)methyl]-7,8-dihydro-4-hydroxy-6H-cyclopent a[g]quinoline-3-carboxamide] | 8.5 |
| CSc1cccc2c(=O)c(C(=O)NCc3ccc(Cl)cc3)c[nH]c12 [Example 65, N-[(4-Chlorophenyl)methyl]-1,4-dihydro-8-(methylthio)-4-oxo-3-quinolinecarboxamide] | 3.3 |
| O=C(NCc1ccc(Cl)cc1)c1cnc2ccc3ncsc3c2c1O [Example 66, N-[(4-Chlorophenyl)methyl]-9-hydroxythiazolo[5,4-f]quinoline-8-carboxamide] | 0.29 |
| O=C(NCc1ccc(Cl)cc1)c1cnc2cc(C(F)(F)F)c(SCc3ccccc3)cc2c1O [Example 72, N-[(4-Chlorophenyl)methyl]-4-hydroxy-6-[(phenylmethyl)thio]-7-(trifluoromethyl)-3-quinolinecarboxamide] | 9.4 |
| O=C(NCc1ccc(Cl)cc1)c1cnc2cccc(C(F)(F)F)c2c1O [Example 76, N-((4-Chlorophenyl)methyl)-4-hydroxy-5-trifluoromethyl-3-quinolinecarboxamide] | 5.2 |
| Cc1ccccc1-c1cc(F)c2ncc(C(=O)NCc3ccc(Cl)cc3)c(O)c2c1 [Example 77, N-((4-Chlorophenyl)methyl)-8-fluoro-4-hydroxy-6-(2-methyl-phenyl)-3-quinolinecarboxamide] | 4 |
| O=C(NCc1ccc(Cl)cc1)c1cnc2c(OC3CCOCC3)c(F)c(F)cc2c1O [Example 78, N-((4-Chlorophenyl)methyl)-6,7-difluoro-4-hydroxy-8-(tetrahydro-2H-pyran-4-oxy)-3-quinolinecarboxamide] | 0.71 |
| COc1c(F)c(F)cc2c(O)c(C(=O)NCc3ccc(Cl)cc3)cnc12 [Example 79, N-((4-Chlorophenyl)methyl)-6,7-difluoro-4-hydroxy-8-methoxy-3-quinolinecarboxamide] | 0.96 |
| COc1c(F)cc2c(O)c(C(=O)NCc3ccc(Cl)cc3)cnc2c1OC [Example 80, N-((4-Chlorophenyl)methyl)-7,8-dimethoxy-6-fluoro-4-hydroxy-3-quinolinecarboxamide] | 2.4 |
| O=C(NCc1ccc(Cl)cc1)c1cnc2c(F)c(Oc3ccc(CO)cc3)c(F)cc2c1O [Example 81, N-((4-Chlorophenyl)methyl)-6,8-difluoro-4-hydroxy-7-(4-(hydroxymethyl)phenoxy)-3-quinolinecarboxamide] | 7.8 |
| COc1c(F)cc2c(O)c(C(=O)NCc3ccc(Cl)cc3)cnc2c1F [Example 82, N-((4-Chlorophenyl)methyl)-6,8-difluoro-4-hydroxy-7-methoxy-3-quinolinecarboxamide] | 2.5 |
| COCCOc1c(F)cc2c(O)c(C(=O)NCc3ccc(Cl)cc3)cnc2c1F [Example 83, N-((4-Chlorophenyl)methyl)-6,8-difluoro-4-hydroxy-7-(2-(methoxy)ethoxy)-3-quinolinecarboxamide] | 4.3 |
| COCCOc1c(F)c(F)cc2c(O)c(C(=O)NCc3ccc(Cl)cc3)cnc12 [Example 84, N-((4-Chlorophenyl)methyl)-6,7-difluoro-4-hydroxy-8-(2-(methoxy)ethoxy)-3-quinolinecarboxamide] | 0.79 |
| COCCOc1c(F)cc2c(O)c(C(=O)NCc3ccc(Cl)cc3)cnc2c1OCCOC [Example 85, N-((4-Chlorophenyl)methyl)-6-fluoro-7,8-di(2-(methoxy)ethoxy)-4-hydroxy-3-quinolinecarboxamide] | 18.1 |
| CC(C)Oc1c(F)cc2c(O)c(C(=O)NCc3ccc(Cl)cc3)cnc2c1F [Example 86, N-((4-Chlorophenyl)methyl)-6,8-difluoro-4-hydroxy-7-(1-methylethoxy)-3-quinolinecarboxamide] | 10.7 |
| O=C(NCc1ccc(Cl)cc1)c1cnc2c(F)cc(-c3nccs3)cc2c1O [Example 87, N-(4-Chlorobenzyl)-8-fluoro-4-hydroxy-6-(1,3-thiazol-2-yl)-3-quinolinecarboxamide] | 7.9 |
| COCCNc1c(F)cc2c(O)c(C(=O)NCc3ccc(Cl)cc3)cnc2c1F [Example 88, N-(4-Chlorobenzyl)-6,8-difluoro-4-hydroxy-7-[(2-methoxyethyl)amino]-3-quinolinecarboxamide] | 30.3 |
| N#CCCCC#Cc1cc(F)c2ncc(C(=O)NCc3ccc(Cl)cc3)c(O)c2c1 [Example 89, N-(4-Chlorobenzyl)-6-(5-cyano-1-pentynyl)-8-fluoro-4-hydroxy-3-quinolinecarboxamide] | 7.2 |
| O=C(NCc1ccc(Cl)cc1)c1cnc2c(F)cc(-c3ccccn3)cc2c1O [Example 90, N-(4-Chlorobenzyl)-8-fluoro-4-hydroxy-6-(2-pyridinyl)-3-quinolinecarboxamide] | 2.9 |
| O=C(NNc1ccc(Cl)cc1)c1cnc2ccc(I)cc2c1O [Example 91, 4-Hydroxy-6-iodo-3-quinolinecarboxylic acid 2-(4-chlorophenyl)hydrazide] | 3.8 |
